For data set [1], the target named is T1, NADPH-oxidase (Homo sapiens, UniProt P04839).
T1 construct: endogenous in cells; host or cells: human neutrophils isolated from buffy coat
T1 sequence (P04839 1-570): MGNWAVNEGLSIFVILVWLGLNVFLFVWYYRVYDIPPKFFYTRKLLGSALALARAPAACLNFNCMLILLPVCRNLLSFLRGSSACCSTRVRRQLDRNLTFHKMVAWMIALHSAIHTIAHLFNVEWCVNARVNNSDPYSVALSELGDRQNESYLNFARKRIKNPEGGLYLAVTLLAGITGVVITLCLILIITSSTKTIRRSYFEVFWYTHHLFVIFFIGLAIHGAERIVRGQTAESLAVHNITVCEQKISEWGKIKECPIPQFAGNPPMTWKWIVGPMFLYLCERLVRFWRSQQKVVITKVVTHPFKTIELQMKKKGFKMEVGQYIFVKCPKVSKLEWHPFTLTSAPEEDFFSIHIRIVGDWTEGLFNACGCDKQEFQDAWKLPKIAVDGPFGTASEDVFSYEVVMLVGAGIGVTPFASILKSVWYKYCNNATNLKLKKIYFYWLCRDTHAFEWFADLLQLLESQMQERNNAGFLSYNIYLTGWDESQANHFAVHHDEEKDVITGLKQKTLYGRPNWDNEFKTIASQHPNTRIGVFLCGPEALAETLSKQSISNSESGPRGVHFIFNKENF
Put plainly: Oxidase Inhibition Assay (PMA-stimulated superoxide-mediated reduction of Cytochrome c, whole cells). It counts as cell-based. The method, then: Whole cells (human neutrophils) are incubated with a pro-inflammatory agonist phorbol myristate acetate (PMA) in the presence or absence of test compound to measure the superoxide-mediated reduction of Cytochrome c at 550 nm. Inhibition of the oxidase is determined by a decreased absorbance at 550 nm, in response to test compound, relative to the absorbance seen with a vehicle control.
The buffy coat from one unit of blood is split evenly into four 50 mL tubes. To each tube 30 mL 3% Dextran (in 0.9% NaCl) is added and the tubes are inverted to mix. Tubes are allowed to sit undisturbed for 25 minutes. The resulting supernatant is recovered into four fresh tubes and centrifuged for 10 minutes at 600×g, 4° C. The supernatant is discarded and pellets are resuspended in 35 mL 0.9% saline. 10 mL Ficoll-Paque PLUS (Pharmacia Biotech AB) is layered beneath the cell suspension and centrifuged at 600×g for 40 minutes at room temperature. The supernatant is again discarded and tubes are tapped to loosen the resulting pellets. 20 mL 0.2% ice cold saline is added for 30 seconds followed by 20 mL 1.6% ice cold saline to lyse the remaining erythrocytes in the pellets. The pellets are centrifuged for 10 minutes at 600×g, 4° C., and the supernatant is discarded. The neutrophil pellets are resuspended in HBSS-glucose buffer (1 mg/mL), adding 2.5 mL to each tube for a total volume of 10 mL. The cell suspension is then counted on a hemocytometer.
The cell suspension is diluted to a concentration of 5×10^6/mL in HBSS-glucose and treated with 1 μg/mL Cytochalasin B (5 mg/mL DMSO) for 10 minutes at 37° C. in a shaking water bath. Cells are diluted to 6×10^5 cells/mL in 92 μM Cytochrome C for a final concentration of 5×10^4 cells/well.
The NADPH-oxidase assay is run on a Biomek 2000 workstation. The workstation adds 2.5 μL compound per well from source plates plus 12.5 μL per well 4 μM PMA (agonist). This volume is brought up to 100 μL total per well in the assay plates upon the addition of the prepared cells (85 μL). The final concentration of drug is 25 μM and PMA is 0.5 μM under these conditions.
The QC curve is a dose-response curve (from about 31.25 nM to about 4000 nM) for competitive binding against a known oxidase inhibitor such as DPI (diphenylene iodonium chloride). The format used for each compound tested is as follows:
The plates are incubated for 1 hour at 37° C. without CO2. The plates are then incubated at room temperature for 30 minutes and the absorbance is read at 550 nm.

Data set [2] deals with potassium peroxochromate arthritis. Conditions: mice, cited from earlier work.
Data set [3] has as its system reactive oxygen species (ROS). To be noted: human patients with rheumatoid arthritis and osteoarthritis, pharmacological doses; cited from earlier work.

Structures can show the parent of a compound that is named as a salt. Where two headings read alike, the source gives them in different places.

We go through 4 compounds from patent publication US7476672B2, “Acetylenic compounds useful in treating inflammatory disorders” (Janssen Pharmaceutica N.V., priority 2002, dated 2009).

The term inhibition denotes the percentage by which the read-out fell short of the control. Higher therefore signals strong suppression. One may read the IC50 as the concentration that inhibits the measured activity by half. Broadly, the melting point is the temperature, or range, at which the solid turns liquid.

For the compound `c1ccc2c(c1)[I+]c1ccccc1-2` [DPI, diphenylene iodoniumchloride], the inhibition at 10 µM in data set [1] (QC wells G-H, 2.5 μL of 10 μM DPI, at 250 nm (so in the source), agonist added) was roughly 70%. For the same compound, the results for the “inhibition of the arthritis” value in data set [2] (10 mmol/kg) and in data set [2] (daily doses of 2.8 μmol/kg) were “Complete inhibition” and 50%, respectively. Regarding `Cc1cc(C#Cc2ccc(Cl)cc2)ccc1OCCNCc1ccc(CNCCC2CCCN2C)cc1` (stereo not shown) [Compound 13, N^1-[2-[4-[(4-chlorophenyl)ethynyl]-2-methylphenoxy]ethyl]-N^4-[2-(1-methyl-2-pyrrolidinyl)ethyl]-1,4-benzenedimethanamine], the melting point was in the range of 251 to 254 °C. Further, in data set [1] (human neutrophils, PMA 0.5 μM, absorbance at 550 nm), half-maximal inhibition (IC50) required 1000 nM.

The compound `CC(COc1ccc(C#Cc2ccc(F)cc2)cc1Cl)NCc1ccc(CN)cc1` (stereo not shown) (as salt: HCl) [Compound 26, N-[2-[2-chloro-4-[(4-fluorophenyl)ethynyl]phenoxy]-1-methylethyl]-1,4-benzenedimethanamine] registered a melting point greater than 300 °C. Regarding `CN1C(C(=O)Nc2ccccn2)=C(O)c2ccccc2S1(=O)=O` [Piroxicam], the “reduction of levels of ROS” value in data set [3] is given as 25%.
